The source of these data is ChEMBL document CHEMBL5042496, “An unanticipated discovery towards novel naphthalimide corbelled aminothiazoximes as potential anti-MRSA agents and allosteric modulators for PBP2a” (Eur J Med Chem, 2022).

Converted amounts (≈) assume the structure as drawn.

In data set [1] the test system is Staphylococcus aureus. The data set is described as follows: Antibacterial activity against methicillin-resistant Staphylococcus aureus assessed as bacterial growth inhibition measured after 24 hrs by two fold serial dilution technique. Format: functional.
A further data set concerns Enterococcus faecium. Put plainly: Antibacterial activity against Enterococcus faecium assessed as bacterial growth inhibition measured after 24 hrs by two fold serial dilution technique. Type of data set: functional.
Data set [2] concerns Staphylococcus aureus. Put plainly: Antibacterial activity against Staphylococcus aureus assessed as bacterial growth inhibition measured after 24 hrs by two fold serial dilution technique. Format: functional.
The test system of data set [3] is Staphylococcus aureus. The data set is described as follows: Antibacterial activity against Staphylococcus aureus ATCC 25923 assessed as bacterial growth inhibition measured after 24 hrs by two fold serial dilution technique. Type of data set: functional.
Data set [4] has as its system Staphylococcus aureus. Put plainly: Antibacterial activity against Staphylococcus aureus ATCC 29213 assessed as bacterial growth inhibition measured after 24 hrs by two fold serial dilution technique. Type of data set: functional.
The test system of the next data set is Klebsiella pneumoniae. Put plainly: Antibacterial activity against Klebsiella pneumoniae assessed as bacterial growth inhibition measured after 24 hrs by two fold serial dilution technique. Type of data set: functional.
Data set [5] concerns Escherichia coli. The data set is described as follows: Antibacterial activity against Escherichia coli assessed as bacterial growth inhibition measured after 24 hrs by two fold serial dilution technique. Format: functional.
Data set [6] relates to Pseudomonas aeruginosa. Put plainly: Antibacterial activity against Pseudomonas aeruginosa assessed as bacterial growth inhibition measured after 24 hrs by two fold serial dilution technique. Type of data set: functional.
The subject of a further data set is Acinetobacter baumannii. The data set is described as follows: Antibacterial activity against Acinetobacter baumannii assessed as bacterial growth inhibition measured after 24 hrs by two fold serial dilution technique. Type of data set: functional.
For data set [7], the system named is Pseudomonas aeruginosa. The data set is described as follows: Antibacterial activity against Pseudomonas aeruginosa ATCC 27853 assessed as bacterial growth inhibition measured after 24 hrs by two fold serial dilution technique. Format: functional.
For data set [8], the system named is Escherichia coli. The data set is described as follows: Antibacterial activity against Escherichia coli ATCC 25922 assessed as bacterial growth inhibition measured after 24 hrs by two fold serial dilution technique. Format: functional.
Data set [9] can be described thus: Hemolytic activity in human RBC assessed as hemolysis incubated for 1 hr. Type of data set: toxicity, cell-based, Erythrocyte. The following applies: red blood cells.

Turning to `CO/N=C(\C(=O)N1CCN(c2ccc3c4c(cccc24)C(=O)N(C)C3=O)CC1)c1csc(N)n1`, the minimal inhibitory concentration (MIC) (as a rule, the least concentration at which growth counts as inhibited) in the data set with Staphylococcus aureus [1] was found to be 4 µg/mL (≈ 8.36 µM); in the data set on Enterococcus faecium it was 8 µg/mL (≈ 16.7 µM); with Staphylococcus aureus [2], 16 µg/mL (≈ 33.4 µM); in the data set with Staphylococcus aureus [3], 64 µg/mL (≈ 134 µM); in the data set with Staphylococcus aureus [4], 16 µg/mL (≈ 33.4 µM); with Klebsiella pneumoniae it was 8 µg/mL (≈ 16.7 µM). For the same compound, the minimal inhibitory concentration (MIC) in the data set with Escherichia coli [5] amounted to 32 µg/mL (≈ 66.9 µM); in the data set on Pseudomonas aeruginosa [6] it was 64 µg/mL (≈ 134 µM); in the data set on Acinetobacter baumannii, 8 µg/mL (≈ 16.7 µM); with Pseudomonas aeruginosa [7] it was 32 µg/mL (≈ 66.9 µM); in the data set with Escherichia coli [8], 64 µg/mL (≈ 134 µM). The HC50 (commonly the concentration that lyses half of the red blood cells) at 1 h in data set [9] was found to be 343 µg/mL.

For the compound `CCCCCCCCCCCCN1C(=O)c2cccc3c(N4CCN(C(=O)/C(=N\OC)c5csc(N)n5)CC4)ccc(c23)C1=O`, the minimal inhibitory concentration (MIC) in the data set with Staphylococcus aureus [1] stood at 64 µg/mL (≈ 101 µM); with Enterococcus faecium, 32 µg/mL (≈ 50.6 µM); with Staphylococcus aureus [2], 16 µg/mL (≈ 25.3 µM); in the data set on Staphylococcus aureus [3] it was 128 µg/mL (≈ 202 µM); in the data set on Staphylococcus aureus [4], 128 µg/mL (≈ 202 µM); with Klebsiella pneumoniae, 64 µg/mL (≈ 101 µM). Further, the MIC in the data set on Escherichia coli [5] was determined as 64 µg/mL (≈ 101 µM); in the data set with Pseudomonas aeruginosa [6], 64 µg/mL (≈ 101 µM); in the data set with Acinetobacter baumannii it was 16 µg/mL (≈ 25.3 µM); in the data set with Pseudomonas aeruginosa [7], 64 µg/mL (≈ 101 µM); with Escherichia coli [8], 128 µg/mL (≈ 202 µM). The HC50 at 1 h in [9] amounted to 359 µg/mL.

For `CO/N=C(\C(=O)N1CCN(c2ccc3c4c(cccc24)C(=O)N(CC#N)C3=O)CC1)c1csc(N)n1`, the MIC in the data set on Staphylococcus aureus [1] is 16 µg/mL (≈ 31.8 µM); in the data set on Enterococcus faecium, 8 µg/mL (≈ 15.9 µM); in the data set with Staphylococcus aureus [2], 64 µg/mL (≈ 127 µM); in the data set with Staphylococcus aureus [3], 128 µg/mL (≈ 254 µM); in the data set with Staphylococcus aureus [4], 32 µg/mL (≈ 63.5 µM); in the data set with Klebsiella pneumoniae, 16 µg/mL (≈ 31.8 µM). Moreover, the MIC was found to be 128 µg/mL (≈ 254 µM) with Escherichia coli [5]; 256 µg/mL (≈ 508 µM) in the data set on Pseudomonas aeruginosa [6]; 8 µg/mL (≈ 15.9 µM) in the data set with Acinetobacter baumannii; 64 µg/mL (≈ 127 µM) in the data set with Pseudomonas aeruginosa [7]; 64 µg/mL (≈ 127 µM) in the data set on Escherichia coli [8]. In addition, in data set [9], the HC50 at 1 h turned out to be 299 µg/mL.

As to `CO/N=C(\C(=O)N1CCN(c2ccc3c4c(cccc24)C(=O)N(c2nc4ccccc4[nH]2)C3=O)CC1)c1csc(N)n1`, the MIC in the data set on Staphylococcus aureus [1] worked out at 4 µg/mL (≈ 6.89 µM); in the data set on Enterococcus faecium, 128 µg/mL (≈ 220 µM); in the data set with Staphylococcus aureus [2], 128 µg/mL (≈ 220 µM); in the data set with Staphylococcus aureus [3] it was 128 µg/mL (≈ 220 µM); with Staphylococcus aureus [4], 128 µg/mL (≈ 220 µM); in the data set on Klebsiella pneumoniae it was 8 µg/mL (≈ 13.8 µM). The MIC with Escherichia coli [5] was found to be 256 µg/mL (≈ 441 µM); with Pseudomonas aeruginosa [6], 16 µg/mL (≈ 27.6 µM); with Acinetobacter baumannii, 128 µg/mL (≈ 220 µM); in the data set with Pseudomonas aeruginosa [7], 32 µg/mL (≈ 55.1 µM); in the data set on Escherichia coli [8], 16 µg/mL (≈ 27.6 µM). Further, the 50% haemolytic concentration (HC50) at 1 h in data set [9] was found to be 367 µg/mL.

Regarding `CO/N=C(\C(=O)N1CCN(c2ccc3c4c(cccc24)C(=O)N(c2nc4ccccc4s2)C3=O)CC1)c1csc(N)n1`, the minimum inhibitory concentration (MIC) was determined as 16 µg/mL (≈ 26.8 µM) in the data set on Staphylococcus aureus [1]; 64 µg/mL (≈ 107 µM) in the data set on Enterococcus faecium; 128 µg/mL (≈ 214 µM) in the data set with Staphylococcus aureus [2]; 128 µg/mL (≈ 214 µM) with Staphylococcus aureus [3]; 128 µg/mL (≈ 214 µM) in the data set with Staphylococcus aureus [4]; 16 µg/mL (≈ 26.8 µM) in the data set on Klebsiella pneumoniae. The minimum inhibitory concentration (MIC) came to 64 µg/mL (≈ 107 µM) in the data set with Escherichia coli [5]; 64 µg/mL (≈ 107 µM) with Pseudomonas aeruginosa [6]; 128 µg/mL (≈ 214 µM) in the data set on Acinetobacter baumannii; 32 µg/mL (≈ 53.5 µM) in the data set with Pseudomonas aeruginosa [7]; 16 µg/mL (≈ 26.8 µM) in the data set with Escherichia coli [8]. Further, the 50% haemolytic concentration (HC50) at 1 h in data set [9] is 334 µg/mL.

Consider `CO/N=C(\C(=O)N1CCN(c2ccc3c4c(cccc24)C(=O)N(O)C3=O)CC1)c1csc(N)n1`, for which the MIC in the data set with Staphylococcus aureus [1] came to 16 µg/mL (≈ 33.3 µM); in the data set on Enterococcus faecium it was 8 µg/mL (≈ 16.6 µM); in the data set with Staphylococcus aureus [2] it was 64 µg/mL (≈ 133 µM); in the data set on Staphylococcus aureus [3] it was 32 µg/mL (≈ 66.6 µM); in the data set on Staphylococcus aureus [4] it was 32 µg/mL (≈ 66.6 µM); with Klebsiella pneumoniae it was 16 µg/mL (≈ 33.3 µM). Further, the minimum inhibitory concentration (MIC) was determined as 32 µg/mL (≈ 66.6 µM) with Escherichia coli [5]; 64 µg/mL (≈ 133 µM) in the data set with Pseudomonas aeruginosa [6]; 2 µg/mL (≈ 4.16 µM) in the data set with Acinetobacter baumannii; 64 µg/mL (≈ 133 µM) in the data set with Pseudomonas aeruginosa [7]; 64 µg/mL (≈ 133 µM) in the data set with Escherichia coli [8]. In addition, in data set [9], the concentration for 50% haemolysis (HC50) at 1 h came to 277 µg/mL.

Consider `CO/N=C(\C(=O)N1CCN(c2ccc3c4c(cccc24)C(=O)N(N)C3=O)CC1)c1csc(N)n1`, for which the MIC with Staphylococcus aureus [1] was 4 µg/mL (≈ 8.34 µM); in the data set with Enterococcus faecium, 32 µg/mL (≈ 66.7 µM); in the data set with Staphylococcus aureus [2], 64 µg/mL (≈ 133 µM); in the data set on Staphylococcus aureus [3], 32 µg/mL (≈ 66.7 µM); in the data set on Staphylococcus aureus [4] it was 64 µg/mL (≈ 133 µM); with Klebsiella pneumoniae it was 32 µg/mL (≈ 66.7 µM). The MIC was 2 µg/mL (≈ 4.17 µM) with Escherichia coli [5]; 16 µg/mL (≈ 33.4 µM) in the data set on Pseudomonas aeruginosa [6]; 32 µg/mL (≈ 66.7 µM) with Acinetobacter baumannii; 32 µg/mL (≈ 66.7 µM) with Pseudomonas aeruginosa [7]; 64 µg/mL (≈ 133 µM) in the data set with Escherichia coli [8]. In addition, the 50% haemolytic concentration (HC50) at 1 h in [9] amounted to 250 µg/mL.

For the compound `CO/N=C(\C(=O)N1CCN(c2ccc3c4c(cccc24)C(=O)N(C(CO)CO)C3=O)CC1)c1csc(N)n1`, the minimal inhibitory concentration (MIC) with Staphylococcus aureus [1] worked out at 4 µg/mL (≈ 7.43 µM); with Enterococcus faecium, 64 µg/mL (≈ 119 µM); in the data set on Staphylococcus aureus [2] it was 64 µg/mL (≈ 119 µM); with Staphylococcus aureus [3], 16 µg/mL (≈ 29.7 µM); in the data set with Staphylococcus aureus [4] it was 32 µg/mL (≈ 59.4 µM); in the data set on Klebsiella pneumoniae, 128 µg/mL (≈ 238 µM). Also, the minimal inhibitory concentration (MIC) worked out at 4 µg/mL (≈ 7.43 µM) in the data set on Escherichia coli [5]; 32 µg/mL (≈ 59.4 µM) with Pseudomonas aeruginosa [6]; 32 µg/mL (≈ 59.4 µM) with Acinetobacter baumannii; 32 µg/mL (≈ 59.4 µM) with Pseudomonas aeruginosa [7]; 64 µg/mL (≈ 119 µM) in the data set on Escherichia coli [8]. The HC50 at 1 h in data set [9] is 232 µg/mL.

For the compound `CO/N=C(\C(=O)N1CCN(c2ccc3c4c(cccc24)C(=O)N(NC(C)=O)C3=O)CC1)c1csc(N)n1`, the MIC in the data set on Staphylococcus aureus [1] worked out at 4 µg/mL (≈ 7.67 µM); in the data set with Enterococcus faecium, 32 µg/mL (≈ 61.4 µM); in the data set on Staphylococcus aureus [2], 64 µg/mL (≈ 123 µM); in the data set on Staphylococcus aureus [3], 64 µg/mL (≈ 123 µM); with Staphylococcus aureus [4], 32 µg/mL (≈ 61.4 µM); in the data set on Klebsiella pneumoniae it was 32 µg/mL (≈ 61.4 µM). Besides, the MIC in the data set with Escherichia coli [5] was 4 µg/mL (≈ 7.67 µM); in the data set with Pseudomonas aeruginosa [6], 32 µg/mL (≈ 61.4 µM); with Acinetobacter baumannii, 16 µg/mL (≈ 30.7 µM); in the data set on Pseudomonas aeruginosa [7], 32 µg/mL (≈ 61.4 µM); in the data set with Escherichia coli [8] it was 64 µg/mL (≈ 123 µM). Besides, the HC50 at 1 h in [9] worked out at 180 µg/mL.
